Reference: the supplement of paper PMC11061612

Columns and labels:
SK-N-DZ (Neuroblastoma) = test: Bliss excess, mean over the matrix (fraction); higher = more synergy
Outline: (§1)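 Bliss excess equals the observed combination effect minus the expected value EA + EB − EA·EB, where EA and EB are the effects of each agent alone. Combination Emax is the second-highest inhibition within the matrix. Inhibition was scaled from CellTiter-Glo 2.0 luminescence, with 0 set by vehicle wells and 1 by blank wells, after 72 hours of two-drug dosing of cells plated in 1536-well plates.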

[1] = test system: NCI-H1648 (Lung Adenocarcinoma); test: as above
Outline: as §1

[2] = test system: SBC-3 (Small Cell Lung Carcinoma); test: as above
Outline: as §1

[3] = test system: OVKATE (Ovarian Carcinoma); test: as above
Outline: as §1

SK-MEL-24 (Melanoma) [4] = test: as above
Outline: as §1

[5] = test system: NCI-H2023 (Non-Small Cell Lung Carcinoma); test: as above
Outline: as §1

[6] = test system: Daudi (Burkitt's Lymphoma); test: as above
Outline: as §1

C32 (Melanoma) = test: as above
Outline: as §1

[7] = test system: NCI-H1435 (Non-Small Cell Lung Carcinoma); test: as above
Outline: as §1

[8] = test system: RS4-11 (B-Lymphoblastic Leukemia); test: as above
Outline: as §1

[9] = test system: RPMI-8402 (T-Lymphoblastic Leukemia); test: as above
Outline: as §1

[10] = test system: NCI-H1944 (Lung Adenocarcinoma); test: as above
Outline: as §1

HT-144 (Melanoma) = test: combination Emax (second highest fraction inhibited in the dose matrix, 72 h); higher = more inhibition; extreme values may be limits of the assay
Outline: as §1

[11] = test system: SW1463 (Colorectal Carcinoma); test: as above
Outline: as §1

[12] = test system: OVKATE (Ovarian Carcinoma); test: as above
Outline: as §1

SK-MEL-24 (Melanoma) [13] = test: as above
Outline: as §1

[14] = test system: JURL-MK1 (Chronic Myelogenous Leukemia); test: as above
Outline: as §1

[15] = test system: NTERA-2-cl-D1 (Other Solid Carcinomas); test: as above
Outline: as §1

[16] = test system: C2BBe1 (Colorectal Carcinoma); test: as above
Outline: as §1

[17] = test system: JJN-3 (Plasma Cell Myeloma); test: as above
Outline: as §1

Structure (SMILES)	Bliss excess (SK-N-DZ (Neuroblastoma))	Bliss excess [1]	Bliss excess [2]	Bliss excess [3]	Bliss excess (SK-MEL-24 (Melanoma) [4])	Bliss excess [5]	Bliss excess [6]	Bliss excess (C32 (Melanoma))	Bliss excess [7]	Bliss excess [8]	Bliss excess [9]	Bliss excess [10]	combination Emax (HT-144 (Melanoma))	combination Emax [11]	combination Emax [12]	combination Emax (SK-MEL-24 (Melanoma) [13])	combination Emax [14]	combination Emax [15]	combination Emax [16]	combination Emax [17]
CCN(CCO)CCCOc1ccc2c(Nc3cc(CC(=O)Nc4cccc(F)c4)[nH]n3)ncnc2c1 [AZD2811] + C=CCn1c(=O)c2cnc(Nc3ccc(N4CCN(C)CC4)cc3)nc2n1-c1cccc(C(C)(C)O)n1 [AZD1775] (first compound max 1 µM, partner max 1 µM)	-0.0289	-0.0388	0.11	-0.0565	-0.0378	0.0031	0.0733	-0.0354	-0.0181	-0.0523	-0.0544	0.0422	0.634	0.48	0.233	0.414	0.995	0.845	0.274	0.694
CCN(CCO)CCCOc1ccc2c(Nc3cc(CC(=O)Nc4cccc(F)c4)[nH]n3)ncnc2c1 [AZD2811] + C[C@@H]1COCCN1C2=NC(=NC(=C2)C3(CC3)[S@](=N)(=O)C)C4=C5C=CNC5=NC=C4 [AZD6738] (first compound max 1 µM, 7x7, partner max 10 µM)	-0.0507	-0.0898	-0.0369	-0.0822	-0.0914	-0.0555	0.0457	-0.0803	-0.0311	0.0023	-0.0312	-0.0415	0.706	0.46	0.344	0.428	1	0.784	0.279	0.566
COc1nnc2ccc(N3CCC(c4ccc(OCCN5CCN(C)C(=O)[C@H]5C)cc4)CC3)nn12 [AZD5153] + CN(CC[C@H](CSC1=CC=CC=C1)NC2=C(C=C(C=C2)S(=O)(=O)NC(=O)C3=CC=C(C=C3)N4CCC(CC4)[C@H](C5=CC=CC=C5C6=CC=C(C=C6)Cl)O)S(=O)(=O)C(F)(F)F)CCO [AZD4320] (first compound max 1 µM, 7x7, partner max 1 µM)	-0.0212						0.0159	0.0176		0.0211		0.0269	0.454				0.994		0.611	0.969
Cc1c2c(nn1C)CSCc1cc(n(C)n1)CSc1cc(c3ccccc3c1)OCCCc1c(C(=O)O)n(C)c3c-2c(Cl)ccc13 [AZD5991] + C[C@@H]1COCCN1C2=NC(=NC(=C2)C3(CC3)[S@](=N)(=O)C)C4=C5C=CNC5=NC=C4 [AZD6738] (first compound max 1 µM, 7x7, partner max 10 µM)	-0.0078	0.0052	0.0405	-0.0421	0.0025	-0.0078	0.0874	0.0531	0.0488	-0.0197	-0.0027		0.969	0.506	0.421	0.549	1	0.928	0.452	1
Cc1c2c(nn1C)CSCc1cc(n(C)n1)CSc1cc(c3ccccc3c1)OCCCc1c(C(=O)O)n(C)c3c-2c(Cl)ccc13 [AZD5991] + Cc1cc2ncnn2cc1Nc1ncc2c(n1)n(C1CCOCC1)c(=O)n2C [AZD7648] (first compound max 1 µM, 7x7, partner max 10 µM)	-0.0564	-0.0218	-0.0801	-0.0347	-0.0134	-0.0423	0.0041	-0.0308	-0.0055			-0.039	0.885	0.223	0.284	0.232	0.773	0.662	0.356	1
CS(=O)(=O)CCNCc1ccc(-c2ccc3ncnc(Nc4ccc(OCc5cccc(F)c5)c(Cl)c4)c3c2)o1 [Lapatinib] + NC1(c2ccc(-c3nc4ccn5c(=O)[nH]nc5c4cc3-c3ccccc3)cc2)CCC1 [MK-2206] (first compound max 10 µM, 7x7, partner max 10 µM)		0.0349	0.0258	-0.031	-0.0572	0.0246		0.0188	0.0601		0.0064	0.0376		0.868	0.537	0.949		0.911		0.899
CC(=O)c1c(C)c2cnc(Nc3ccc(N4CCNCC4)cn3)nc2n(C2CCCC2)c1=O [Palbociclib] + CN(CC[C@H](CSC1=CC=CC=C1)NC2=C(C=C(C=C2)S(=O)(=O)NC(=O)C3=CC=C(C=C3)N4CCC(CC4)[C@H](C5=CC=CC=C5C6=CC=C(C=C6)Cl)O)S(=O)(=O)C(F)(F)F)CCO [AZD4320] (first compound max 10 µM, 7x7, partner max 1 µM)	0.0814						0.0218	-0.0713		-0.0308		-0.0915	0.753				1		0.318	0.388
CCc1c2c(nc3ccc(O)cc13)-c1cc3c(c(=O)n1C2)COC(=O)[C@]3(O)CC [SN-38] + O=C(c1cc(Cc2n[nH]c(=O)c3ccccc23)ccc1F)N1CCN(C(=O)C2CC2)CC1 [Olaparib] (first compound max 0.3 µM, 7x7, partner max 10 µM)		0.0133	0.0513	-0.0113	0.0007	0.0986	0.122	0.117	0.0243		0.0767	0.025		0.473	0.224	0.775	1	1		0.688
CC1(C)CCC(CN2CCN(c3ccc(C(=O)NS(=O)(=O)c4ccc(NCC5CCOCC5)c([N+](=O)[O-])c4)c(Oc4cnc5[nH]ccc5c4)c3)CC2)=C(c2ccc(Cl)cc2)C1 [Venetoclax] + CS(=O)(=O)CCNCc1ccc(-c2ccc3ncnc(Nc4ccc(OCc5cccc(F)c5)c(Cl)c4)c3c2)o1 [Lapatinib] (first compound max 1 µM, 7x7, partner max 10 µM)		0.04	-0.0339	-0.035	-0.0188	-0.06		-0.0443	0.0073		-0.0163			0.4	0.182	0.683		0.2		
